Test results: patent US7855209B2, “Allosteric modulators of the A1 adenosine receptor” (King Pharmaceuticals Research and Development, Inc., priority 2006, dated 2010)
One block for each compound: values may come before it.

Experiments:
[1] = target: T1, human A1-adenosine receptor (Homo sapiens, UniProt P30542); experiment: Functional assay measuring the cAMP level in CHO cells expressing the human A1-adenosine receptor; format: cell-based
T1 construct: expressed in transfected cells; host or cells: CHO cells (hCHO-A1 clone)
T1 sequence (P30542 1-326): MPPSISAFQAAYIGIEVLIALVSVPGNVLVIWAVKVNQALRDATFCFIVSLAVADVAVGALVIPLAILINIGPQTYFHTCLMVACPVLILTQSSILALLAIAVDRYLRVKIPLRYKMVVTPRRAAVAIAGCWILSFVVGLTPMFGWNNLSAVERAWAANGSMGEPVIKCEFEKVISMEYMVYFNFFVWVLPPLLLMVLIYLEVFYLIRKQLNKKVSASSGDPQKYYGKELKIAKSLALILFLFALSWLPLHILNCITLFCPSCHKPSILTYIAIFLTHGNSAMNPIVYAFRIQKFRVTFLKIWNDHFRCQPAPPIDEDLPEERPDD
Description: Measurement of cAMP Enhancement in CHO Cells (Functional Assay):
Allosteric enhancement is measured as the action of a test compound at different concentrations (0.01, 0.1, 1 and 10 μM) to reduce the cAMP content of hCHO-A1 cells. To initiate an experiment, growth medium is removed from the 12-well plates and cells are washed once with warm Hanks' buffered saline. The wash solution is then removed and replaced with fresh Hanks' solution containing forskolin (1 μM), rolipram (20 μM), N^6-cyclopentyladenosine (CPA, 0.01 nM), adenosine deaminase (2 U/mL), and the test compound. Forskolin is used to stimulate the activity of adenylyl cyclase, rolipram to inhibit cAMP phosphodiesterase, adenosine deaminase to degrade endogenous adenosine, and CPA to cause a small increase of the number of activated adenosine receptors. […] The content of cAMP in acidified extracts of cells is determined by radioimmunoassay as previously described (Kollias-Baker et al. J. Pharmacol. Exp. Ther. 1997, 281, 761-768). Because the magnitude of the effects of allosteric modulators on hCHO-A1 cells change subtly with passage number and differ slightly among different aliquots of cells, the actions of the test compounds and the action of a reference compound (PD 81,723) are assessed in each experiment. […]

[2] = target: T1, human A1-adenosine receptor; experiment: Saturation binding of [3H]CCPA to hCHO-A1 membranes (BMAX)
Description: Membrane Preparation from CHO Cells Transfected with the Human Recombinant A1, A2A and A3 Adenosine Receptors:
The hCHO-A1, hCHO-A2A and hCHO-A3 cell clones are grown adherently and maintained in Dulbecco's modified Eagle's medium with nutrient mixture F12, containing 10% fetal calf serum, penicillin (100 U/mL), streptomycin (100 μg/mL), L-glutamine (2 mM), geneticine (G418, 0.2 mg/mL) at 37° C. in 5% CO2/95% air (Klotz et al. Naunyn-Schmied. Arch Pharm. 1998, 357, 1-9). Cells are split two or three times weekly at a ratio of between 1:5 and 1:10. For membrane preparation the culture medium is removed. […] The protein concentration is determined according to a Bio-Rad method (Bradford, 1976) with bovine albumin as a standard reference. […]
To determine the effect of the compounds of the present invention on the binding to A1, A2A and A3 receptors, membranes from hCHO-A1, hCHO-A2A, hCHO-A3 are incubated in a buffer solution in the absence and in the presence of the examined compounds. […] Bound and free radioactivity are separated by filtering the assay mixture through Whatman GF/B glass fibre filters using a Micro-mate 196 cell harvester (Packard Instrument Company). The filter bound radioactivity was counted on Top Count Microplate Scintillation Counter (efficacy 57%) with Micro-Scint 20. […]

IC50 [1]: ~100 nM
increase of the BMAX value of the agonist [3H]CCPA ([2]; at 10 μM concentration, human A1 adenosine receptors): up to 600%
Structure (SMILES): Nc1scc(CN2CCN(c3ccc(Cl)cc3)CC2)c1C(=O)c1ccc(Cl)cc1 [Example 4, {2-Amino-4-[4-((4-chlorophenyl)piperazin-1-yl)methyl]thiophen-3-yl}(4-chlorophenyl)methanone]

increase in the BMAX value of the agonist [3H]CCPA [2]: about 6 fold
Structure (SMILES): Nc1scc(CN2CCC3(CC2)Oc2cccc(F)c2O3)c1C(=O)c1ccc(Cl)cc1 [Example 60, {2-Amino-4-(4-fluorospiro[benzo[d][1,3]-dioxole-2,4′-piperidine]-1′-ylmethyl)thiophen-3-yl}(4-chlorophenyl)methanone]

melting point: 140 to 141 °C
Structure (SMILES): Cc1sc(N)c(C(=O)c2ccc(Cl)cc2)c1CN1CCN(c2cccc(F)c2)CC1 [Example 88, {2-Amino-4-[(4-(3-fluorophenyl)piperazin-1-yl)methyl]-5-methylthiophen-3-yl}(4-chlorophenyl)methanone]
